Reference: patent US9683014B2, “Dipeptide mimetics of NGF and BDNF neurotrophins” (UCHREZHDENIE ROSSIISKOI AKADEMII MEDITSYNSKIKH NAUK …, priority 2009, dated 2017)
Like-named read-outs stand apart in the source and are kept apart here. Marks after values point to notes of the source that are not given here.

Key:
[1] = tested on: Hsp70; assay: Western blot of Hsp70 in HT-22 cells; assay type: cell-based, mouse; details: 24 h after addition; GK-1, GK-2 10^−8 and 10^−5 M; GK-3 10^−6 M; GK-4 10^−7 M; GK-5 10^−6 M
Experimental: (§1) The amount of Hsp70, Hsp32 and pTrkA was determined in the cytoplasmic fraction of HT-22 neuronal cells. For heat shock proteins, a test compound was added to the culture 24 hours prior to testing, before the cells were washed off the culture liquid with PBS. For pTrkA, a test compound was added to the culture immediately prior to the cell lysis just for 1 or 2 min, before the cells were washed off the culture liquid with PBS. Then the cells were mixed with the lysis buffer (50 mM Tris-HCl, 5 mM EDTA, 1 mM DTT, 1% Triton X-100, pH 7.5) at 4° C. and lysed for 5 min, then scraped off, transferred into a 1.5 ml centrifuge tube and centrifuged at 13000 rpm and 4° C. for 10 min. The supernatant containing cytosolic proteins was assayed by electrophoresis and immunoblotting. Proteins were separated on a 10% polyacrylamide gel (PAAG) and transferred from PAAG onto a PVDF membrane by electroelution for 45 min. Western blots were pre-incubated for 1 h in a TBST solution containing 1% Tween-20 and supplemented with 5% (w/v) skim milk. Western blots were then incubated with the primary polyclonal anti-Hsp32 antibody diluted 1:1000 or primary monoclonal anti-Hsp70 antibody diluted 1:1000 or primary monoclonal anti-phosphorylated tyrosine kinase A antibody diluted 1:1000 for 1 hour. Then the blots were washed and incubated with a secondary antibody conjugated to horseradish peroxidase (diluted 1:2000) for 1 hour. The detection of Hsp70, Hsp32 and pTrkA was carried out by the ECL reaction on a Kodak film.

[2] = biological target: T1, tyrosine kinase A (TrkA) (Mus musculus, UniProt Q3UFB7); assay: Tyrosine kinase A phosphorylation in HT-22 cells (Western blot); assay type: cell-based; details: first minute of exposure
T1 construct: phosphorylation of tyrosine kinase A in cultured hippocampal neuronal cell line HT22; endogenous in cells; host or cells: HT-22 hippocampal neuronal cell line
T1 sequence (Q3UFB7 34-799): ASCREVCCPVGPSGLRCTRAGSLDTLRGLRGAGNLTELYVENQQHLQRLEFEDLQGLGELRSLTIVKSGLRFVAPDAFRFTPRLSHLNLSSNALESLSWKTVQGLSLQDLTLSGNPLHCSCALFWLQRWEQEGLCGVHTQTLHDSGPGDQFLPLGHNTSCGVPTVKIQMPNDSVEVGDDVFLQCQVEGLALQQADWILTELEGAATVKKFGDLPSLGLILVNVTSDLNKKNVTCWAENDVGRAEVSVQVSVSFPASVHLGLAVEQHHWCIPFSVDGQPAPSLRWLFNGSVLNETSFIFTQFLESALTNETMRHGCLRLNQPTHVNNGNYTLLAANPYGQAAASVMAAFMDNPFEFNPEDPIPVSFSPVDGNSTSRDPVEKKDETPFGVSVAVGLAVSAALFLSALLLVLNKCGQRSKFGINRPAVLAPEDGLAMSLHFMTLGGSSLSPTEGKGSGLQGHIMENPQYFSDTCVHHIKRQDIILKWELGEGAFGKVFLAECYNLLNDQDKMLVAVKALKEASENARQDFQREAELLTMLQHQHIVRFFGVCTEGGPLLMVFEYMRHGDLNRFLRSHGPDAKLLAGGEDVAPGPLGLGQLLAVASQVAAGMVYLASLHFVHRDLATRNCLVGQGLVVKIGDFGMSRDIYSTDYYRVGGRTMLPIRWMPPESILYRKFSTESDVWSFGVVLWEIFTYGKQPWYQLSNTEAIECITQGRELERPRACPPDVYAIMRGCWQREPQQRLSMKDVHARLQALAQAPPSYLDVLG
Experimental: as §1

[3] = tested on: rats with photothrombosis of the prefrontal cortex; details: 1 mg/kg i.p.
Experimental: The test substance was administered intraperitoneally at a dose of 1 mg/kg using the following regimen: at 1 h after surgery, at 24 h after the first administration, at 4 days and 6 days after the first administration.
A bilateral focal ischemic infarction of the prefrontal cortex of the rat brain (the Fr1 and Fr2 fields according to the atlas of Paxinos and Watson, 1986) was produced by the photoinduced thrombosis method (Watson et al., 1985). Animals were anesthetized with chloral hydrate (300 mg/kg i.p.). The photosensitive dye Bengal red (Sigma Chemical Co.) was injected into the jugular vein (3% solution, 40 mg/kg). The animal's head was clamped in the stereotaxis device, and the periosteum was removed after a longitudinal incision of the skin.
A light guide (the output light beam diameter 3 mm) was placed at a distance of 1 mm from the skull surface using the following coordinates: 2.00 mm rostral of the bregma and 2.00 mm lateral of the sagittal suture. Cold light illumination (a xenon lamp source, 25 V, 250 W) was carried out for 15 min at either side. […] To assess their functional status, the animals were evaluated for their motor activity (MA) in a RODEO-1 automatic unit with an observation time of 5 min. The MA was analyzed before and at 9 days after the photothrombosis of the prefrontal cortex.

[4] = tested on: Hsp32; assay: Western blot of Hsp32 in HT-22 cells; assay type: cell-based, mouse; details: 24 h after addition; GK-1, GK-2 10^−8 and 10^−5 M; GK-3 10^−6 M; GK-4 10^−7 M; GK-5 10^−6 M
Experimental: as §1

[5] = tested on: rats with hemorrhagic stroke; details: 1 mg/kg
Experimental: The experiments were carried out on male white outbred rats weighing 220-250 g. […] The local cerebral hemorrhage (post-traumatic intracerebral hemorrhage) as a hemorrhagic stroke (HS) model was produced by the method of Makarenko (Makarenko A. N. et al., Zh. V. N. D. 2002, 52(6), 765-768).
To produce the stroke, rats were anesthetized with chloral hydrate (400 mg/kg i.m.) followed by craniotomy. The cerebral tissue in the region of internal capsule was destroyed followed (in 2-3 min) by the injection of blood (0.02-0.03 ml) taken from under the animal's tongue.
The rats were monitored for 14 days after surgery. Animal's physical condition and behavioral features were recorded at 1, 3, 7 and 14 days.
The animals were distributed into 3 groups. Group 1 comprised sham-operated (SO) rats with craniotomy alone, group 2 comprised animals with HS, and group 3 comprised rats with HS treated with GK-2 (1 mg/kg at 3 h after surgery and every 48 hours thereafter for a total of 6 administrations). Group 1 and group 2 animals were treated with physiological saline in an equivalent volume.
Changes in animals' physical condition and behavior were evaluated by conventional methods. The neurological status was assessed by scoring neurological deficits according to MacGrow's stroke scoring system as modified by I. V. Gannushkina; by the muscle tone and coordination of movements monitoring methods; cognitive function was assessed by the passive avoidance conditioned reflex (PAR); and orientation and exploratory behavior by using the open field test. Also the drug's effect on the survival of rats was monitored.

NCCCC[C@H](NC(=O)[C@H](CCC(=O)O)NC(=O)CCC(=O)O)C(=O)NCCCCCCNC(=O)[C@H](CCCCN)NC(=O)[C@H](CCC(=O)O)NC(=O)CCC(=O)O [GK-2, bis-(N-monosuccinyl-glutamyl-lysine) hexamethylenediamide]
amount of Hsp70 [1]: increase
level of phosphorylated tyrosine kinase A [2]: increased
lesion volume (left and right hemispheres, per rat, mean) ([3]; FIG. 2.4): reduced
protection effectiveness rate (PER) ([3]; PER=(V0−Vs)/V0×100%): 61%
amount of Hsp32 [4]: increase
Number of rats lost within 14 days after HS, total loss, % ([5]; sham 0, stroke 40): 0%
Number of rats lost within 14 days after HS, total loss, abs. ([5]; sham 0/10, stroke 4/10): 0/10^#
Latency to entering the dark compartment (burrowing reflex) ([5]; sham 13.3 ± 2.10, stroke 40.2 ± 13.2): 27.9 ± 10.4 s
Number of rats lost, % ([5]; Day 1, sham 0, stroke 20): 0%
Number of rats lost, abs. ([5]; Day 1, sham 0/10, stroke 2/10): 0/10
Number of crossings into open arms ([5]; Day 1, sham 0.9, stroke 0): 1.6 ± 0.4
Number of crossings into the middle ([5]; Day 1, sham 1.9, stroke 0.25): 1.5 ± 0.4
Number of crossings into closed arms ([5]; Day 1, sham 2.4, stroke 1.1): 1.9 ± 0.4
Latency to entering an arm ([5]; Day 1, sham 6.1, stroke 62.8): 4.9 ± 1.05 s
Length of time spent in open arms ([5]; Day 1, sham 11.6, stroke 0): 51.3 ± 27.9 s
Length of time spent in the middle ([5]; Day 1, sham 46.8, stroke 95.3): 27.5 ± 7.4 s
PAR retention: Number of rats entering the dark compartment ([5]; Day 1, sham 60, stroke 100): 60%
PAR retention: Latency to entering the dark compartment ([5]; Day 1, sham 95.0, stroke 24.5): 85.5 ± 25.9 s
Length of time spent in closed arms ([5]; Day 1, sham 241.6, stroke 204.8): 221.2 ± 28.5 s
Number of rats lost, % ([5]; Day 3, sham 0, stroke 0): 0%
Number of rats lost, abs. ([5]; Day 3, sham 0/10, stroke 0/8): 0/10
Number of crossings into open arms ([5]; Day 3, sham 0.6, stroke 0.12): 0.8 ± 0.2
Number of crossings into the middle ([5]; Day 3, sham 0.6, stroke 0.12): 0.5 ± 0.2
Number of crossings into closed arms ([5]; Day 3, sham 1.4, stroke 0.5): 1.2 ± 0.1
Latency to entering an arm ([5]; Day 3, sham 5.1, stroke 164.4): 7.1 ± 1.9 s
Length of time spent in open arms ([5]; Day 3, sham 6.2, stroke 1.3): 10.3 ± 4.4 s
Length of time spent in the middle ([5]; Day 3, sham 18.6, stroke 165.0): 15.1 ± 4.9 s
PAR retention: Number of rats entering the dark compartment ([5]; Day 3, sham 70, stroke 100): 60%
PAR retention: Latency to entering the dark compartment ([5]; Day 3, sham 74.0, stroke 18.3): 88.0 ± 25.8 s
Length of time spent in closed arms ([5]; Day 3, sham 275.2, stroke 133.7): 274.6 ± 5.7 s
Number of rats lost, % ([5]; Day 7, sham 0, stroke 12.5): 0%
Number of rats lost, abs. ([5]; Day 7, sham 0/10, stroke 1/8): 0/10
Number of crossings into the middle ([5]; Day 7, sham 0.7, stroke 0): 0.8 ± 0.4
Number of crossings into open arms ([5]; Day 7, sham 1.4, stroke 0.4): 1.1 ± 0.2
Number of crossings into closed arms ([5]; Day 7, sham 1.4, stroke 1.0): 1.5 ± 0.2
Latency to entering an arm ([5]; Day 7, sham 3.0, stroke 67.4): 2.5 ± 0.3 s
Length of time spent in the middle ([5]; Day 7, sham 8.3, stroke 67.4): 8.0 ± 2.2 s
Length of time spent in open arms ([5]; Day 7, sham 13.3, stroke 8.6): 9.2 ± 1.9 s
PAR retention: Number of rats entering the dark compartment ([5]; Day 7, sham 50, stroke 100): 80%
PAR retention: Latency to entering the dark compartment ([5]; Day 7, sham 97.2, stroke 17.6): 45.5 ± 22.5 s
Length of time spent in closed arms ([5]; Day 7, sham 278.4, stroke 238.3): 283.0 ± 2.9 s
Number of rats lost, % ([5]; Day 14, sham 0, stroke 14.3): 0%
Number of rats lost, abs. ([5]; Day 14, sham 0/10, stroke 1/7): 0/10
Number of crossings into the middle ([5]; Day 14, sham 0.7, stroke 0.2): 1.4 ± 0.3
Number of crossings into open arms ([5]; Day 14, sham 1.1, stroke 0.2): 1.1 ± 0.3
Number of crossings into closed arms ([5]; Day 14, sham 1.3, stroke 0.8): 1.6 ± 0.4
Latency to entering an arm ([5]; Day 14, sham 3.1, stroke 54.3): 2.6 ± 0.4 s
Length of time spent in the middle ([5]; Day 14, sham 18.1, stroke 57.7): 16.4 ± 8.5 s
Length of time spent in open arms ([5]; Day 14, sham 29.7, stroke 0.8): 8.8 ± 2.3 s
PAR retention: Number of rats entering the dark compartment ([5]; Day 14, sham 60, stroke 100): 90%
PAR retention: Latency to entering the dark compartment ([5]; Day 14, sham 93.5, stroke 8.0): 45.0 ± 16.4 s
Length of time spent in closed arms ([5]; Day 14, sham 252.2, stroke 241.5): 274.8 ± 9.9 s
